From patent US20060116316A1, “Heterocyclic inhibitors of IRES-mediated translation and methods of use thereof” (priority 2004, published 2006)
Where a SMILES comes first, the peptide text is derived from it.

Test system: HCV IRES
Assay: HCV IRES reporter FACS assay (GFP expression ratio, intein-expressed cyclic peptides)
Type: cell-based, Hepatitis C virus
Conditions: 3-mers from mutant intein scaffold, junction Val-His-Asn-X1X2X3-Trp-Ile-Ser; ratio at least 1.20 = significant activity
From the text: [The source words this procedure for another variant and says it was used here with some conditions changed.] Cells producing libraries of cyclic 3-mers and 4-mers (i.e., libraries of cyclic peptides that contain 3 or 4 amino acid residues) were constructed using methods identical to those of Kinsella et al (J Biol. Chem. 2002 277:37512-8), except different oligonucleotides were used for library construction. Clones from this library were screened in an assay shown in FIG. 2 to identify IRES-inhibitory compounds.
In summary, separate cyclic 3-mer and cyclic 4-mer libraries were constructed such that each peptide of the library contained a fixed Ser, Thr or Cys residue (at position 1) and the remaining residues were randomized. For library construction, degenerate oligonucleotides of sequence 5′-[…](AGC/ACC/TGC)(NNK)2 or 3 TGCATCAGCGGCGACAG-3′ were annealed to the primer 5′-[…]-3′ and extended using the Expand PCR kit (Roche Molecular Biochemicals). The double-stranded DNA insert was digested and inserted into the BclI/DrdI sites of DnaBO-e-BFP (ACUC). The plasmid libraries were electroporated into ElectroMAX DH 10B competent E. coli (Invitrogen) for amplification on LB+amp agar medium. […] Expression of the intein is detected by detecting BFP expression. Expression of the intein (and the cyclic peptide produced by the intein) is suppressible by addition of exogenous doxycycline. The amino acid sequence of the junctions of the intein scaffold used in making the 3-mer library is Val-His-Asn-X3 or 4-Cys-Ile-Ser, where X3 or 4 are three or four contiguous amino acids.
Infectious retroviral particles were produced by transfection of 15 µg of each library (as described in Swift et al, (1999). Current Protocols in Immunology Vol. 10.17C, pp. 1-17, Freeman, N.Y.) into approximately 5×10^6 Phoenix-A packaging cells. Each resulting library of retroviral particles was then used to infect 5×10^6 BJAB-S3A11 reporter cells and a FACS based selection was carried out to isolate cells with reduced HCV-IRES reporter output.
In detail, referring to FIG. 2, the cells used in the assay contained an IRES-dependent reporter system. […]. Also present in the cells is a control reporter system for assaying the activity of 5′ cap-dependent translation (the mechanism by which most cellular proteins are normally translated). The control reporter system contains a CMV promoter that drives the transcription of an RNA containing 5′ cap-dependent UTR, operably linked to an RNA encoding RFP (red fluorescent protein). Translation of RFP is dependent on the activity of the 5′ cap-dependent UTR.
Cells containing both the cyclic compound library and the reporter systems described above were first screened for survival upon exposure to diptheria toxin, and then screened by FACS to identify cells that had reduced GFP expression, as compared to RFP expression. Cells were expanded and replica-plated and grown in the presence or absence of dox (100 ng/ml) for four days. Plates were stimulated with IL-4 and GFP expression (relative to RFP) was monitored by flow cytometry. The IRES-inhibitory activity of a peptide is evaluated by calculating the ratio of the geometric mean of GFP expression of peptide positive cells (“peptide pos+” cells i.e., cells not contacted with dox) to the geometric mean of GFP expression of peptide negative cells (“peptide pos−” cells i.e., cells contacted with dox).
Cyclic peptides assigned higher scores have a greater IRES-inhibitory activity.
The number shown in parentheses after each of the amino acid sequences is the IRES-inhibitory activity ratio, as discussed above.

Going from O=C1N[C@@H](CO)C(=O)N2CCC[C@H]2C(=O)N[C@H]1Cc1c[nH]c2ccccc12 [cyclo-SPW, cyclo[SPW]] (cyclo(Pro-Trp-Ser)) to O=C1N[C@@H](CS)C(=O)N[C@@H](Cc2c[nH]c3ccccc23)C(=O)N[C@H]1CO [cyclo-SCW, cyclo[SCW]] (cyclo(Cys-Trp-Ser)), the “IRES-inhibitory activity ratio (geometric mean GFP expression, peptide positive cells / peptide negative cells)” value falls from 2.28 to 2.01.

Going from C[C@@H](O)[C@@H]1NC(=O)[C@H](CO)NC(=O)[C@H](Cc2c[nH]c3ccccc23)NC1=O [cyclo-STW, cyclo[STW]] (cyclo(Ser-Thr-Trp)) to O=C1N[C@@H](Cc2c[nH]c3ccccc23)C(=O)N[C@@H](CO)C(=O)N[C@H]1CO [cyclo-SSW, cyclo[SSW]] (cyclo(Ser-Ser-Trp)), the “IRES-inhibitory activity ratio (geometric mean GFP expression, peptide positive cells / peptide negative cells)” value falls from 2.12 to 2.05.

Going from C[C@@H]1NC(=O)[C@H](CO)NC(=O)[C@H](Cc2ccccc2)NC1=O [cyclo-SAF, cyclo[SAF]] (cyclo(Ala-Phe-Ser)) to N=C(N)NCCC[C@@H]1NC(=O)[C@H](CO)NC(=O)[C@H](Cc2c[nH]c3ccccc23)NC1=O [cyclo-SRW, cyclo[SRW]] (cyclo(Arg-Trp-Ser)), the “IRES-inhibitory activity ratio (geometric mean GFP expression, peptide positive cells / peptide negative cells)” value rises from 1.88 to 2.14.

Same assay, conditions: 3-mers from mutant intein scaffold, junction Val-His-Tyr-X1X2X3-Cys-Ile-Ser; ratio at least 1.20 = significant activity

First: C[C@@H]1NC(=O)[C@H](CO)NC(=O)[C@H](Cc2ccc(O)cc2)NC1=O [cyclo-SAY, cyclo[SAY]] (cyclo(Ala-Tyr-Ser))
Second: CSCC[C@@H]1NC(=O)[C@H](C)NC(=O)[C@H](CO)NC1=O [cyclo-SAM, cyclo[SAM]] (cyclo(Ala-Met-Ser))
The “IRES-inhibitory activity ratio (geometric mean GFP expression, peptide positive cells / peptide negative cells)” value of the first is higher: 1.95 for the first, 1.36 for the second.

Compared with CC(C)[C@@H]1NC(=O)[C@H](C)NC(=O)[C@H]([C@@H](C)O)NC1=O [cyclo-TAV, cyclo[TAV]] (cyclo(Ala-Val-Thr)), CC(C)[C@@H]1NC(=O)[C@H]([C@@H](C)O)NC(=O)[C@H](CO)NC1=O [cyclo-STV, cyclo[STV]] (cyclo(Ser-Thr-Val)) is higher in “IRES-inhibitory activity ratio (geometric mean GFP expression, peptide positive cells / peptide negative cells)” value: 2.00 for the first, 2.24 for the second.

For CC(C)[C@@H]1NC(=O)[C@H](CC(=O)O)NC(=O)[C@H](CO)NC1=O [cyclo-SDV, cyclo[SDV]] (cyclo(Asp-Val-Ser)), the “IRES-inhibitory activity ratio (geometric mean GFP expression, peptide positive cells / peptide negative cells)” value was 1.23.

Same assay, conditions: 4-mers from mutant intein scaffold, junction Val-His-Asn-X1X2X3X4-Cys-Ser; ratio at least 1.20 = significant activity

Compared with N=C(N)NCCC[C@@H]1NC(=O)[C@H](Cc2c[nH]c3ccccc23)NC(=O)[C@H](Cc2ccccc2)NC(=O)[C@H](CO)NC1=O [cyclo-SFWR, cyclo[SFWR]] (cyclo(FWRS)), NCCCC[C@@H]1NC(=O)[C@H](Cc2ccccc2)NC(=O)[C@H](Cc2c[nH]c3ccccc23)NC(=O)[C@H](CO)NC1=O [cyclo-SWFK, cyclo[SWFK]] (cyclo(FKSW)) is higher in “IRES-inhibitory activity ratio (geometric mean GFP expression, peptide positive cells / peptide negative cells)” value: 1.49 for the first, 1.58 for the second.

In the case of C[C@@H]1NC(=O)[C@H](Cc2ccccc2)NC(=O)[C@H](Cc2c[nH]c3ccccc23)NC(=O)[C@H](CO)NC1=O [cyclo-SWFA, cyclo[SWFA]] (cyclo(ASWF)), the “IRES-inhibitory activity ratio (geometric mean GFP expression, peptide positive cells / peptide negative cells)” value is reported as 1.31.

Same assay, conditions: BJAB-S3A11 reporter cells, +/- dox 100 ng/ml four days; library intein junction Val-His-Asn-X1X2X3-Cys-Ile-Ser; ratio at least 1.20 = significant activity

Compared with CSCC[C@@H]1NC(=O)[C@H](CO)NC(=O)[C@H](Cc2c[nH]c3ccccc23)NC1=O [cyclo-SMW, cyclo[SMW]] (cyclo(Met-Trp-Ser)), CSCC[C@@H]1NC(=O)[C@H](Cc2c[nH]c3ccccc23)NC(=O)[C@H](CO)NC1=O [cyclo-SWM, cyclo[SWM]] (cyclo(Met-Ser-Trp)) is lower in “IRES-inhibitory activity ratio (geometric mean GFP expression, peptide positive cells / peptide negative cells)” value: 1.28 for the first, 1.22 for the second.

First: O=C1N[C@@H](Cc2c[nH]c3ccccc23)C(=O)N[C@@H](Cc2ccc(O)cc2)C(=O)N[C@H]1CO [cyclo-SWY, cyclo[SWY]] (cyclo(Ser-Trp-Tyr))
Second: O=C1N[C@@H](Cc2ccc(O)cc2)C(=O)N[C@@H](Cc2c[nH]c3ccccc23)C(=O)N[C@H]1CO [cyclo-SYW, cyclo[SYW]] (cyclo(Ser-Tyr-Trp))
The “IRES-inhibitory activity ratio (geometric mean GFP expression, peptide positive cells / peptide negative cells)” value of the first is lower: 1.38 for the first, 1.64 for the second.

Compared with C[C@@H](O)[C@@H]1NC(=O)[C@H](Cc2c[nH]c3ccccc23)NC(=O)[C@H](CO)NC1=O [cyclo-TSW, cyclo[TSW]] (cyclo(Ser-Trp-Thr)), CSCC[C@@H]1NC(=O)[C@H]([C@@H](C)O)NC(=O)[C@H](Cc2c[nH]c3ccccc23)NC1=O [cyclo-TMW, cyclo[TMW]] (cyclo(Met-Trp-Thr)) is higher in “IRES-inhibitory activity ratio (geometric mean GFP expression, peptide positive cells / peptide negative cells)” value: 1.25 for the first, 2.1 for the second.

First: O=C1N[C@@H](Cc2c[nH]c3ccccc23)C(=O)N[C@@H](Cc2c[nH]c3ccccc23)C(=O)N[C@H]1CS [cyclo-CWW, cyclo[CWW]] (cyclo(Cys-Trp-Trp))
Second: O=C1N[C@@H](Cc2ccc(O)cc2)C(=O)N[C@@H](Cc2c[nH]c3ccccc23)C(=O)N[C@H]1CS [cyclo-CYW, cyclo[CYW]] (cyclo(Cys-Tyr-Trp))
The “IRES-inhibitory activity ratio (geometric mean GFP expression, peptide positive cells / peptide negative cells)” value of the first is higher: 1.41 for the first, 1.3 for the second.

Compared with O=C1N[C@@H](Cc2c[nH]c3ccccc23)C(=O)N[C@@H](Cc2ccccc2)C(=O)N[C@H]1CO [cyclo-SWF, cyclo[SWF]] (cyclo(Phe-Ser-Trp)), CC(C)C[C@@H]1NC(=O)[C@H](CO)NC(=O)[C@H](Cc2c[nH]c3ccccc23)NC1=O [cyclo-SLW, cyclo[SLW]] (cyclo(Leu-Trp-Ser)) is lower in “IRES-inhibitory activity ratio (geometric mean GFP expression, peptide positive cells / peptide negative cells)” value: 1.33 for the first, 1.27 for the second.

Compared with CC(C)[C@@H]1NC(=O)[C@H](CO)NC(=O)[C@H](C(C)C)NC1=O [cyclo-SVV, cyclo[SVV]] (cyclo(Ser-Val-Val)), CSCC[C@@H]1NC(=O)[C@H]([C@@H](C)O)NC(=O)[C@H](C(C)C)NC1=O [cyclo-TMV, cyclo[TMV]] (cyclo(Met-Val-Thr)) is lower in “IRES-inhibitory activity ratio (geometric mean GFP expression, peptide positive cells / peptide negative cells)” value: 1.64 for the first, 1.56 for the second.

Going from C[C@@H]1NC(=O)[C@H](CS)NC(=O)[C@H](Cc2c[nH]c3ccccc23)NC1=O [cyclo-CAW, cyclo[CAW]] (cyclo(Ala-Trp-Cys)) to CSCC[C@@H]1NC(=O)[C@H](CO)NC(=O)[C@H](C(C)C)NC1=O [cyclo-SMV, cyclo[SMV]] (cyclo(Met-Val-Ser)), the “IRES-inhibitory activity ratio (geometric mean GFP expression, peptide positive cells / peptide negative cells)” value falls from 1.37 to 1.36.
